These results are taken from patent US9926277B2, “Pyridone compounds, pharmaceutical compositions thereof, and their therapeutic use for treating proliferative diseases” (BioTheryX, Inc., priority 2015, dated 2018).

As a reminder, the viability is a read-out of living cells in per cent, often relative to untreated cells.

This assay deals with MDA-MB-231 cells. As to the kind of experiment: Viability of MDA-MB-231 cancer cells (CELLTITER, Example B5). The note with it: Homo sapiens, 72 hours incubation, read-out: Cell Viability (%); for viability at 0.005 µM: Conc. 5 nM; for viability at 0.01 µM: Conc. 10 nM; for viability at 0.02 µM: Conc. 20 nM. The assay is classed as cell-based. As to the method: Compounds A1 and A3 to A6 were tested for their ability to reduce the viability of MDA-MB-231 cells, along with ciclopirox (CPX). MDA-MB-231 is a metastatic human breast cancer cell line. […] Seventy-two hours after incubation, cell viability was measured using CELLTITER® from Promega.

Consider `Cc1cc(C2CCCCC2)n(O)c(=O)c1` [CPX, ciclopirox, reference compound], for which the viability at 0.005 µM was found to be 43.4 ± 2.2%, the viability at 0.01 µM came out at 46.3 ± 11.1% and the viability at 0.02 µM is 20.9 ± 1.5%. Besides, the viability at 0.003 µM (Conc. 3 nM) is 60.3 ± 2%.
As for `Cc1cc(C2CCCCC2)n(OS(=O)(=O)c2ccccc2)c(=O)c1` [Compound A1, 6-cyclohexyl-4-methyl-2-oxopyridin-1(2H)-yl benzenesulfonate], the viability at 0.005 µM came out at 46.8 ± 8%, the viability at 0.01 µM was found to be 31.1 ± 5.4% and the viability at 0.02 µM was 22.1 ± 4.9%.
On the same counts, the results for `Cc1cc(C2CCCCC2)n(OS(=O)(=O)c2ccc(C(C)C)cc2)c(=O)c1` [Compound A3, 6-Cyclohexyl-4-methyl-2-oxopyridin-1(2H)-yl 4-isopropylbenzenesulfonate] are 48.3 ± 4.9%, 34.4 ± 6.9% and 28.4 ± 1.3%.
Turning to `CCCS(=O)(=O)On1c(C2CCCCC2)cc(C)cc1=O` [Compound A4, 6-Cyclohexyl-4-methyl-2-oxopyridin-1(2H)-yl propane-1-sulfonate], the viability at 0.005 µM was 40.5 ± 11.4%, the viability at 0.01 µM was determined as 32.3 ± 0.6% and the viability at 0.02 µM worked out at 29.2 ± 1.7%.
For the compound `Cc1cc(C2CCCCC2)n(OS(=O)(=O)c2c(C(C)C)cc(C(C)C)cc2C(C)C)c(=O)c1` [Compound A5, 6-Cyclohexyl-4-methyl-2-oxopyridin-1(2H)-yl 2,4,6-triisopropylbenzenesulfonate], the viability at 0.005 µM was 62.9 ± 9.6%, the viability at 0.01 µM amounted to 50.6 ± 6.2% and the viability at 0.02 µM was 40.6 ± 7.1%.
For `Cc1cc(C2CCCCC2)n(OS(=O)(=O)c2cccs2)c(=O)c1` [Compound A6, 6-Cyclohexyl-4-methyl-2-oxopyridin-1(2H)-yl thiophene-2-sulfonate], in that order: 26.7 ± 4%, 31.4 ± 8.4% and 22.1 ± 3.6%.
